Tested on: GNS166 cells
Assay: Label-free proteomics differential expression
Type: cell-based, human
Method: Proteomic studies were performed by the Proteomics Facility of the CIC bioGUNE by label-free relative quantification on nLC MS/MS. […] In both approaches, the top 20 enriched terms were plotted and the pathways were clustered using divisive hierarchical clustering based on pairwise Jaccard distances.

In the case of `C#CCN(Cc1cc2cc(OCCCN3CCCCC3)ccc2n1S(=O)(=O)c1ccccc1)C(=O)CCCCCCC(=O)NO` [DDI], the “LogFC THG1_HUMAN” value (protein Q9NWX6) is reported as -0.1726, the “Direction F120C_HUMAN” value (protein Q9NX05) is reported as “Down” and the “LogFC F120C_HUMAN” value (protein Q9NX05) is reported as -0.4931. The “Direction IMPA3_HUMAN” value (protein Q9NX62) was “Down”, the “LogFC IMPA3_HUMAN” value (protein Q9NX62) was -2.939 and the “Direction NSMA3_HUMAN” value (protein Q9NXE4) was “Down”. For the same compound, the “LogFC NSMA3_HUMAN” value (protein Q9NXE4) was -1.089, the “Direction TRM1_HUMAN” value (protein Q9NXH9) was “Down” and the “LogFC TRM1_HUMAN” value (protein Q9NXH9) was -1.158. For the same compound, the “Direction GTSE1_HUMAN” value (protein Q9NYZ3) was “Down”, the “LogFC GTSE1_HUMAN” value (protein Q9NYZ3) was -2.523 and the “Direction F120A_HUMAN” value (protein Q9NZB2) was “Down”. For the same compound, the “LogFC F120A_HUMAN” value (protein Q9NZB2) was -0.8566, the “Direction MYOF_HUMAN” value (protein Q9NZM1) was “Down” and the “LogFC MYOF_HUMAN” value (protein Q9NZM1) was -1.514. For the same compound, the “LogFC SPN90_HUMAN” value (protein Q9NZQ3 GN=NCKIPSD) was 0.408, the “LogFC H2AW_HUMAN” value (protein Q9P0M6 GN=MACROH2A2) was -2.056 and the “Direction RCC2_HUMAN” value (protein Q9P258) was “Down”. For the same compound, the “LogFC RCC2_HUMAN” value (protein Q9P258) was -0.788, the “Direction MO4L1_HUMAN” value (protein Q9UBU8) was “Down” and the “LogFC MO4L1_HUMAN” value (protein Q9UBU8) was -1.829. For the same compound, the “LogFC SE1L1_HUMAN” value (protein Q9UBV2 GN=SEL1L) was 1.64, the “Direction CSN7A_HUMAN” value (protein Q9UBW8) was “Down” and the “LogFC CSN7A_HUMAN” value (protein Q9UBW8) was -0.366. The “Direction QCR9_HUMAN” value (protein Q9UDW1) was “Down”, the “LogFC QCR9_HUMAN” value (protein Q9UDW1) was -1.3801 and the “Direction ABCF2_HUMAN” value (protein Q9UG63) was “Down”. The “LogFC ABCF2_HUMAN” value (protein Q9UG63) was -0.9684, the “LogFC SEC63_HUMAN” value (protein Q9UGP8 GN=SEC63) was -0.6574 and the “Direction Z3H7B_HUMAN” value (protein Q9UGR2) was “Down”. The “LogFC Z3H7B_HUMAN” value (protein Q9UGR2) was -0.582, the “Direction ABC3B_HUMAN” value (protein Q9UH17) was “Down” and the “LogFC ABC3B_HUMAN” value (protein Q9UH17) was -2.711. For the same compound, the “LogFC PCYOX_HUMAN” value (protein Q9UHG3 GN=PCYOX1) was 1.78, the “Direction DDX20_HUMAN” value (protein Q9UHI6) was “Down” and the “LogFC DDX20_HUMAN” value (protein Q9UHI6) was -1.492. For the same compound, the “LogFC NB5R1_HUMAN” value (protein Q9UHQ9 GN=CYB5R1) was 0.825, the “LogFC VATH_HUMAN” value (protein Q9UI12 GN=ATP6V1H) was 0.8971 and the “LogFC PRAF1_HUMAN” value (protein Q9UI14 GN=RABAC1) was -1.449. The “LogFC DDX41_HUMAN” value (protein Q9UJV9 GN=DDX41) was -0.9972, the “LogFC CDC23_HUMAN” value (protein Q9UJX2 GN=CDC23) was -0.6966 and the “Direction APC7_HUMAN” value (protein Q9UJX3) was “Down”. The “LogFC APC7_HUMAN” value (protein Q9UJX3) was -0.9681, the “LogFC NOCT_HUMAN” value (protein Q9UK39 GN=NOCT) was 0.6965 and the “LogFC CCNL1_HUMAN” value (protein Q9UK58 GN=CCNL1) was -1.514. The “LogFC BORG2_HUMAN” value (protein Q9UKI2 GN=CDC42EP3) was 1.338, the “LogFC DEN2A_HUMAN” value (protein Q9ULE3 GN=DENND2A) was -2.086 and the “Direction HEG1_HUMAN” value (protein Q9ULI3) was “Down”. The “LogFC HEG1_HUMAN” value (protein Q9ULI3) was -2.228, the “Direction PKHG1_HUMAN” value (protein Q9ULL1) was “Down” and the “LogFC PKHG1_HUMAN” value (protein Q9ULL1) was -2.254. For the same compound, the “Direction HECD1_HUMAN” value (protein Q9ULT8) was “Down”, the “LogFC HECD1_HUMAN” value (protein Q9ULT8) was -1.1597 and the “Direction TPX2_HUMAN” value (protein Q9ULW0) was “Down”. The “LogFC TPX2_HUMAN” value (protein Q9ULW0) was -2.6733, the “LogFC SYNRG_HUMAN” value (protein Q9UMZ2 GN=SYNRG) was 0.8469 and the “Direction MAGD2_HUMAN” value (protein Q9UNF1) was “Down”. For the same compound, the “LogFC MAGD2_HUMAN” value (protein Q9UNF1) was -1.225, the “Direction DIM1_HUMAN” value (protein Q9UNQ2) was “Down” and the “LogFC DIM1_HUMAN” value (protein Q9UNQ2) was -1.324. For the same compound, the “Direction CP131_HUMAN” value (protein Q9UPN4) was “Down”, the “LogFC CP131_HUMAN” value (protein Q9UPN4) was -0.9726 and the “Direction TRI33_HUMAN” value (protein Q9UPN9) was “Down”. For the same compound, the “LogFC TRI33_HUMAN” value (protein Q9UPN9) was -0.5693, the “LogFC BAIP2_HUMAN” value (protein Q9UQB8 GN=BAIAP2) was 0.1397 and the “LogFC AKAP2_HUMAN” value (protein Q9Y2D5 GN=AKAP2) was 0.8401. The “Direction WBP11_HUMAN” value (protein Q9Y2W2) was “Down”, the “LogFC WBP11_HUMAN” value (protein Q9Y2W2) was -1.003 and the “LogFC RM11_HUMAN” value (protein Q9Y3B7 GN=MRPL11) was -0.5878. For the same compound, the “Direction UFC1_HUMAN” value (protein Q9Y3C8) was “Down”, the “LogFC UFC1_HUMAN” value (protein Q9Y3C8) was -1.4452 and the “Direction FBX7_HUMAN” value (protein Q9Y3I1) was “Down”. The “LogFC FBX7_HUMAN” value (protein Q9Y3I1) was -0.6256, the “LogFC SAMH1_HUMAN” value (protein Q9Y3Z3 GN=SAMHD1) was 0.753 and the “LogFC TRRAP_HUMAN” value (protein Q9Y4A5 GN=TRRAP) was -1.346. For the same compound, the “Direction ARIP4_HUMAN” value (protein Q9Y4B4) was “Down”, the “LogFC ARIP4_HUMAN” value (protein Q9Y4B4) was -1.479 and the “LogFC IRS2_HUMAN” value (protein Q9Y4H2 GN=IRS2) was 2.2713. For the same compound, the “Direction TBL2_HUMAN” value (protein Q9Y4P3) was “Down”, the “LogFC TBL2_HUMAN” value (protein Q9Y4P3) was -0.6001 and the “LogFC NDK7_HUMAN” value (protein Q9Y5B8 GN=NME7) was 2.17. The “Direction PCDGH_HUMAN” value (protein Q9Y5G0) was “Down”, the “LogFC PCDGH_HUMAN” value (protein Q9Y5G0) was -2.292 and the “LogFC CD2AP_HUMAN” value (protein Q9Y5K6 GN=CD2AP) was 0.4294. The “LogFC BZW2_HUMAN” value (protein Q9Y6E2 GN=BZW2) was 0.8735, the “LogFC OAS3_HUMAN” value (protein Q9Y6K5 GN=OAS3) was -0.7466 and the “Direction WASF2_HUMAN” value (protein Q9Y6W5) was “Down”. For the same compound, the “LogFC WASF2_HUMAN” value (protein Q9Y6W5) was -1.033, the “Direction NS1BP_HUMAN” value (protein Q9Y6Y0) was “Down” and the “LogFC NS1BP_HUMAN” value (protein Q9Y6Y0) was -2.1021. For the same compound, the “LogFC S23IP_HUMAN” value (protein Q9Y6Y8 GN=SEC23IP) was 0.5141, the “Direction GLCNE_HUMAN” value (protein Q9Y223) was “Down” and the “LogFC GLCNE_HUMAN” value (protein Q9Y223) was -0.915. For the same compound, the “LogFC HPSE_HUMAN” value (protein Q9Y251 GN=HPSE) was 0.7253, the “Direction EIF3L_HUMAN” value (protein Q9Y262) was “Down” and the “LogFC EIF3L_HUMAN” value (protein Q9Y262) was -0.4083. The “Direction AAR2_HUMAN” value (protein Q9Y312) was “Down”, the “LogFC AAR2_HUMAN” value (protein Q9Y312) was -1.2504 and the “LogFC SKAP_HUMAN” value (protein Q9Y448 GN=KNSTRN) was -1.456. For the same compound, the “Direction TLN1_HUMAN” value (protein Q9Y490) was “Down”, the “LogFC TLN1_HUMAN” value (protein Q9Y490) was -0.5101 and the “LogFC PPME1_HUMAN” value (protein Q9Y570 GN=PPME1) was 1.066. For the same compound, the “LogFC FHOD1_HUMAN” value (protein Q9Y613 GN=FHOD1) was 1.204, the “LogFC JAM1_HUMAN” value (protein Q9Y624 GN=F11R) was 1.904 and the “Direction GPC6_HUMAN” value (protein Q9Y625) was “Down”. The “LogFC GPC6_HUMAN” value (protein Q9Y625) was -2.082, the “Direction S12A7_HUMAN” value (protein Q9Y666) was “Down” and the “LogFC S12A7_HUMAN” value (protein Q9Y666) was -2.1239. For the same compound, the “LogFC EM55_HUMAN” value (protein Q00013 GN=MPP1) was 0.8133, the “Direction NAA25_HUMAN” value (protein Q14CX7) was “Down” and the “LogFC NAA25_HUMAN” value (protein Q14CX7) was -1.1158. For the same compound, the “Direction PDS5A_HUMAN” value (protein Q29RF7) was “Down”, the “LogFC PDS5A_HUMAN” value (protein Q29RF7) was -1.029 and the “LogFC H1BP3_HUMAN” value (protein Q53T59 GN=HS1BP3) was 2.722. For the same compound, the “LogFC GL8D1_HUMAN” value (protein Q68CQ7 GN=GLT8D1) was -1.2539.
